Test results from patent US20220160680A1, “MICROORGANISM MIXTURES, MOLECULES DERIVED THEREFROM, AND METHODS OF USE THEREOF” (B. G. Negev Technologies and Applications Ltd., at …, priority 2018, published 2022).
Entries after “also recorded” stand apart in the source; their conditions may differ.

Key:
V. cholerae toxin = assay: GM1-ELISA cholerae toxin detection assay; format: cell-based, Vibrio cholerae
Experimental: GM1 (monosialotetrahexosylganglioside) was seeded and immobilized on a 96-well white/clear bottom microtiter plate (Greiner) microtiter plates with the following procedure: GM1 stock solution (2 mg/mL in PBS) was diluted with PBS (final conc. 10 μg/mL). 200 μL of the GM1 solution was added to each well and incubated at 37° C. without shaking for 4-16 hours. The plates were washed with PBS (×3). Bovine serum albumin (BSA) was dissolved in PBS (final conc. 4 mg/mL) and 200 μL of the BSA-PBS were added to each well and incubated at 37° C. without shaking for at least 4 hours. The plates were washed with PBS (×3) and were stored in fridge until use. VC1 wild-type strain with of the tested compounds (Tryptophol acetate and Tyrosol acetate both in concentration of 100 μM) and a control with bacteria only, were grown and incubated with aeration and shaking overnight in LB medium at 30° C. The cultures were spinned-down for 5 min at 5,000 rcf and the supernatant was taken and diluted 1:2 with a BSA-PBS 4 mg/mL solution. […] 100 μL of the luminol working solution were added to each well, the plate was shaken for 1.5-2 minutes and the luminescence was measured using a Microtiter Plate Reader (Varioskan Flash, Thermo). Luminescence values were normalized to the control.

[1] = Oxygen radical absorbance capacity (ORAC) assay; format: biochemical; details: AAPH-induced
Source text: (§1) FIGS. 34A-34B are graphs showing the anti-oxidation effect of tryptophol acetate and tyrosol acetate. Anti-oxidative capacity of the molecules as measured by DPPH (34A) and ORAC (34B) assays. 34A. The results are presented as a percentage of absorbance inhibition (517 nm, the absorbance maximum of DPPH) in the presence of tryptophol acetate (1) alone, tyrosol acetate alone (2) alone, and 1+2 together. 34B. Fluorescence decay of fluorescein induced by AAPH in the absence or presence of 1 and 2. Reaction mixtures containing fluorescein (60 nM) and AAPH (18.75 mM) in 200 μl of phosphate buffer (75 mM, pH 7.4) were incubated at 37° C. for 800 min. Changes in fluorescence intensity emitted by fluorescein were monitored. Results are presented as the net area under the curve (AUC). Each value is the mean±SD of triplicate experiments. ***p<0.0001
The ORAC experiment measures the quenching of fluorescein emission by peroxyl radicals, and inhibition of the oxidation reaction by molecular species added to the solution.

[2] = DPPH radical absorbance assay; format: biochemical; details: 517 nm
Source text: as §1
The inventors analyzed the anti-oxidation properties of the molecules (FIG. 34) as oxidation processes and generation of reactive oxidative species (ROS) are recognized as contributing to toxic effects in diverse diseases and pathological conditions. FIG. 34 depicts application of a spectrophotometric assay monitoring the visible absorbance of the 2,2-diphenyl-1-picrylhydrazyl (DPPH) radical, which is widely employed for evaluating the anti-oxidation activity of biomolecules. […]

[3] = system: V. cholerae VC1 (WT) and MM920; assay: V. cholerae biofilm modulation (CLSM, crystal violet); format: cell-based, Vibrio cholerae
Experimental: The various pathogenic indicator strains used in this study were V. cholerae strain MM920 (ACqsA AluxQ), Vibrio harveyi strain MM30 (LuxS, Tn5). To initiate biofilm formation, bacteria was grown in the absence of the V. cholerae autoinducer 1 (CAI1). In addition, the bacteria were grown in presence of: 900 nM CAI1 (Vibrio Cholerae MM920), 900 nM CAI1, 200 μM Tryptophol acetate and 200 μM Tyrosol acetate, and 200 μM Tryptophol acetate and 200 μM Tyrosol acetate.
Biofilms were grown under shaking conditions at 30° C. in 96-well plate (Thermo Scientific, Rochester, N.Y., USA). […] The stained cells were washed twice with PBS. Biofilm images were taken by CLSM (Plan-Apochromat 20×/0.8 M27, Zeiss LSM880, Germany).
For static biofilm assay, overnight cultures of V. cholerae strain MM920 was diluted 1:10 in fresh LB medium containing a final concentration of 100 μM from each Tryptophol acetate and Tyrosol acetate or DMSO (up to 1%) as control. […] One in absence of the V. cholerae autoinducer (CAI-1) and the other one in presence of 900 nM CAI-1. Biofilms were grown under non-shaking conditions at 37° C. in 96-well plate (Thermo Scientific, Rochester, N.Y., USA). […] The stained cells were washed twice with PBS. Biofilm images were taken by CLSM (Plan-Apochromat 20×/0.8 M27, Zeiss LSM880, Germany).
Biofilm matrixes of V. cholerae VC1 WT (FIGS. 23Ai and 23Aii), and the V. cholerae MM920 mutant (FIGS. 23Aiii and 23Aiv) were grown for 24 hours with or without tryptophol acetate in the growth medium, and stained using the BacLight® Dead/Live Kit to distinguish viable cells.

SMILES	V. cholerae toxin levels (V. cholerae toxin)	Fluorescence decay of fluorescein [1]	Quenching of DPPH absorbance [2] [%]	Biofilm volume, crystal violet (CV) assay ([3]; 0-200 μM, 24 hr)	Biofilm of V. cholerae MM920 with CAI-1 ([3]; 900 nM CAI-1 and 100 μM)	Biofilm matrix of V. cholerae VC1 WT ([3]; 100 μM, 24 hours)	V. cholerae biofilm production ([3]; 100 μM)
CC(=O)OCCc1c[nH]c2ccccc12 [Tryptophol acetate]	reduce V. cholerae toxin levels in a dose dependent manner	around 400 min	10	increased biofilm volume	re-formation of a dense and uniform biofilm layer	significantly denser biofilm	–
CC(=O)OCCc1ccc(O)cc1 [Tyrosol acetate]	inhibit; also recorded: reduction of toxin production by V. cholerae in a dose dependent manner	~800 min	~3	–	–	–	inhibit
